This is an account of results in patent US9133235B2, “Macrocyclic antagonists of the motilin receptor for treatment of gastrointestinal dysmotility disorders” (Ocera Therapeutics, Inc., priority 2006, dated 2015).

pKi: −log10 of the molar value. Read-outs that look alike come from different tables or passages of the source. Some results are limits rather than exact numbers.

The target of data set [1] is human motilin receptor (Homo sapiens, UniProt O43193). Kind of data set: Competitive radioligand binding assay (motilin receptor). On the set-up: purchased PerkinElmer (SignalScreen) 6110544; host or cells: CHO cells, stably transfected; membranes. In short, it runs like this: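 Membranes from CHO cells stably expressing human motilin receptor were incubated 2 h at room temperature with [125I]-motilin (0.04-0.06 nM final) and compound (0.0050–10 μM) in Tris-HCl pH 7.4, MgCl2, EDTA, 0.1% BSA. Filter-bound counts were measured; 1 μM motilin defined non-specific binding; variable-slope non-linear regression.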

A short description of data set [2]: Pharmacokinetic analysis in rat (i.v., s.c., p.o.). The class given is in vivo. The settings on record: for half-life: read-out: Elimination (t1/2, min). An excerpt: I. Pharmacokinetic Analysis of Representative Compounds of the Invention
The pharmacokinetic behavior of compound of the invention can be ascertained by methods well known to those skilled in the art. (Wilkinson, G. R. “Pharmacokinetics: The Dynamics of Drug Absorption, Distribution, and Elimination” in Goodman & Gilman's The Pharmacological Basis of Therapeutics, Tenth Edition, Hardman, J. G.; Limbird, L. E., Eds., McGraw Hill, Columbus, Ohio, 2001, Chapter 1.) The following method was used to investigate the pharmacokinetic parameters (elimination half-life, total plasma clearance, etc.) for intravenous, subcutaneous and oral administration of compounds of the present invention.
Rats: male, Sprague-Dawley (˜250 g)
Rats/Treatment Group: 6 (2 subsets of 3 rats each, alternate bleeds)
Each sample of test compound was sent in solution in a formulation (such as with cyclodextrin) appropriate for dosing. It will be appreciated by one skilled in the art that appropriate modifications to this protocol can be made as required to adequately test the properties of the compound under analysis.
1. Intravenous (i.v.): 2 mg/kg
2. Subcutaneous(s.c): 2 mg/kg
Plasma Collection 1. Same protocol for all dosing groups 2. For each group, 2 subsets (A and B) of 3 rats/subset
At the time intervals indicated above, 0.7 mL of blood were collected from each animal. It is expected that this volume of blood will yield a sample of at least 0.3 mL of plasma. EDTA was used as an anti-coagulant for whole blood collection. Whole blood samples were chilled and immediately processed by centrifugation to obtain plasma.
Plasma samples were stored frozen (−70° C.) until analysis. Analytical detection of parent compound in plasma samples performed by LC-MS after an appropriate preparation protocol: extraction using solid phase extraction (SPE) cartridges (Oasis MCX, Oasis HLB) or liquid-liquid extraction.
Column: Atlantis dC18 from Waters 2.1×30 mm
A: 95% MeOH, 5% water, 0.1% TFA
B: 95% water, 5% MeOH, 0.1% TFA
The analyte was quantitated based upon a standard curve and the method validated with internal standards.

Setting [3] is: [125I]-motilin competition, membranes of CHO cells with human motilin receptor, read-out: Ki.

Sequence of human motilin receptor (O43193 whole entry): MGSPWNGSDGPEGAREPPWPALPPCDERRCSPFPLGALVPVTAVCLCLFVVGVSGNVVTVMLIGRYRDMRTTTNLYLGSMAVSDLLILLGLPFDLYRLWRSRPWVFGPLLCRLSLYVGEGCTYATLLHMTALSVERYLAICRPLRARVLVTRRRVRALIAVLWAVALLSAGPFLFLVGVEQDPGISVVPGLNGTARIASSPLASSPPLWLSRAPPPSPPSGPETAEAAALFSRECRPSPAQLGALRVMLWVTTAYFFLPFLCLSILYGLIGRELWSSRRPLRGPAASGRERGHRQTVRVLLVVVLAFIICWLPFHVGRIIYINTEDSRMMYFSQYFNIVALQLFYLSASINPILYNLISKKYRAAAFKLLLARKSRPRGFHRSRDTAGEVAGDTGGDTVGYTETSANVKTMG

By pKi is commonly meant −log10 of the Ki, conventionally taken in molar units. As for `CCC[C@@H]1NC(=O)[C@@H](C(C)C)NC(=O)[C@@H](Cc2cccc(F)c2)N[C@@H](C)COc2ccccc2CCCNC1=O` [Compound 551], the pKi is ≥ 8.00 in data set [1] (Table 7, read-out: Binding Ki) and ≥ 8.00 in data set [1] (setting [3]). In addition, the “Clearance” value in data set [2] (i.v.) is recorded as 33 mL/min/kg. Further, the “Elimination (t1/2, min)” value is 139 min in data set [2] (i.v., typical dose 2 mg/kg) and 70 to 125 min in data set [2] (p.o., typical dose 8 mg/kg, without cyclodextrin). In data set [2] (p.o., without cyclodextrin), the “Bioavailability (oral)” value was 6%.

For orientation: bioavailability means the share of a dose that reaches the circulation, judged against a reference dose that is usually intravenous. `CCC[C@@H]1NC(=O)[C@@H](C(C)C)NC(=O)[C@@H](Cc2ccc(O)c(Cl)c2)N[C@@H](C)COc2ccccc2CCCNC1=O` [Compound 552]: in data set [1] (setting [3]), the negative-log Ki (pKi) is ≥ 8.00. The Clearance amounted to 45 mL/min/kg in data set [2] (male, Sprague-Dawley, plasma, iv, 1.9 mg/kg, i.v., read-out: Clearance) and 39 mL/min/kg in data set [2] (s.c.). In addition, the half-life in data set [2] (male, Sprague-Dawley, plasma, iv, typical dose 2 mg/kg) is 24 min; in data set [2] (male, Sprague-Dawley, plasma, po, typical dose 8 mg/kg, in the presence of 10% beta-cyclodextrin), 307 min; in data set [2] (male, Sprague-Dawley, plasma, sc, typical dose 2 mg/kg) it was 103 min. Further, the bioavailability in data set [2] (male, Sprague-Dawley, plasma, po, 8 mg/kg, in the presence of 10% beta-cyclodextrin) came to 10%.

Consider `CC(C)[C@H]1NC(=O)[C@@H](Cc2cccc(C(F)(F)F)c2)NCCOc2ccccc2CCCNC(=O)[C@H](CN(C)C)NC1=O` [Compound 502], for which, in data set [1] (Table 7, read-out: Binding Ki), the pKi is ≥ 8.00. The “Clearance” value came to 57 mL/min/kg in data set [2] (i.v.) and 79 mL/min/kg in data set [2] (s.c.). For the same compound, the “Elimination (t1/2, min)” value in data set [2] (i.v., typical dose 2 mg/kg) came out at 102 min; in data set [2] (s.c., typical dose 2 mg/kg), 146 min.

Take `CCC[C@@H]1NC(=O)[C@@H](C(C)C)NC(=O)[C@@H](Cc2ccc(O)c(C(C)(C)C)c2)NCCOc2ccccc2CCCNC1=O` [Compound 553]: the pKi is ≥ 8.00 in data set [1] (Table 7, read-out: Binding Ki) and ≥ 8.00 in data set [1] (setting [3]).
